# Test results from ChEMBL document CHEMBL1759900, “Inhibition of nitric oxide production in lipopolysaccharide-stimulated RAW264.7 macrophage cells by lignans isolated from Euonymus alatus leaves and twigs” (Bioorg Med Chem Lett, 2011).
# Test system: RAW264.7
# Assay: Inhibition of LPS-induced nitric oxide production in mouse RAW264.7 cells preincubated with compound for 1 hr before exposure to LPS measured after 24 hrs by Griess reaction method
# Format: functional, cell-based
row,SMILES,IC50
1,COc1cc([C@@H]2Oc3c(OC)cc(/C=C/CO)cc3[C@H]2CO)cc(OC)c1O,12.8 µM
2,COc1cc([C@H]2OC[C@H]3[C@@H]2CO[C@@H]3c2cc(OC)c(OC)c(OC)c2)cc(OC)c1O,15.8 µM
3,COc1cc([C@@H]2Oc3c(OC)cc(/C=C/CO)cc3[C@H]2CO)ccc1O [DEHYDROCONIFERYL ALCOHOL],8.5 µM
4,COc1cc(C(O)C(CO)Oc2c(OC)cc(C3OCC4C(c5cc(OC)c(OC(CO)C(O)c6ccc(O)c(OC)c6)c(OC)c5)OCC34)cc2OC)ccc1O (stereo not given) [HEDYOTISOL B],> 100 µM
5,COc1cc([C@H]2OC[C@H]3[C@@H]2CO[C@@H]3c2cc(OC)c(O[C@H](CO)[C@@H](O)c3ccc(O)c(OC)c3)c(OC)c2)ccc1O [HEDYOTOL C],21.4 µM
6,COc1cc(C(O)C(CO)Oc2c(OC)cc(C3Oc4c(OC)cc(/C=C/CO)cc4C3CO)cc2OC)ccc1O (stereo not given),21.3 µM
7,"COc1cc(C(OC)C(CO)OC(CO)Cc2cc(OC)c(O)c(OC)c2)ccc1O (single isomer, unassigned; (-))",44.3 µM
8,COc1cc(CC(CO)OC(CO)C(OC)c2cc(OC)c(O)c(OC)c2)ccc1O (stereo not given),41.9 µM
9,COc1cc([C@H](O)[C@@H](CO)Oc2c(OC)cc(/C=C/CO)cc2OC)cc(OC)c1O,57.9 µM
10,COc1cc([C@H]2Oc3c(OC)cc(/C=C/CO)cc3[C@@H]2CO)ccc1O,9.3 µM
11,COc1cc([C@H](O)[C@H](CO)Oc2ccc(CCCO)cc2OC)ccc1O,69.2 µM
12,COc1cc([C@H]2OC[C@H]3[C@@H]2CO[C@@H]3c2cc(OC)c(O)c(OC)c2)cc(OC)c1O [SYRINGARESINOL],14.8 µM
13,COc1cc([C@H]2Oc3c(OC)cc(CCCO)cc3[C@@H]2CO)ccc1O [DIHYDRODEHYDRODICONIFERY ALCOHOL],9.8 µM
14,COc1cc([C@H]2Oc3c(OC)cc(/C=C/CO)cc3[C@@H]2CO)cc(OC)c1O,11.7 µM
15,COC(=O)[C@@H](N)CCCNC(=N)N[N+](=O)[O-] [L-NAME],48.5 µM
16,COc1cc([C@@H](O)[C@H](CO)Oc2ccc(/C=C/CO)cc2OC)ccc1O,63.6 µM
17,COc1cc([C@@H]2c3c(cc(OC)c(O)c3OC)C[C@@H](CO)[C@@H]2CO)cc(OC)c1O,55.5 µM
18,COc1cc([C@H](O)[C@H](CO)Oc2c(OC)cc(/C=C/CO)cc2OC)ccc1O,58.2 µM
19,COc1cc([C@@H](O)[C@@H](CO)Oc2ccc(CCCO)cc2OC)ccc1O,63.4 µM
20,COc1cc([C@H](O)[C@@H](CO)Oc2ccc(/C=C/CO)cc2OC)ccc1O,66.4 µM
